“Also recorded” adds a separate entry of the source.
Key:
Assay type in all cases: cell-based
[1] = test system: iCell microglia (human iPSC derived microglia); assay: CellTiter Glo 2.0 viability assay, iCell human microglia, CSF1 stimulation; conditions: 1.5625-200 nM, CSF1 100 ng/mL 24 hours
Description: (§1) iCell microglia (human iPSC derived microglia) were acquired from FujiFilm (cat #C1110, lot #105458). These cells were thawed and maintained in iCell Microglia Complete Media according the manufacture instructions. For this assay, iCell microglia were resuspended at a concentration of 5×10^5 cells/mL and 100 μL of this cell suspension was added to the inner 60 wells of a 96-well plate. iCell microglia were allowed to rest overnight at 37° C., 5% CO2. The following evening, the media was removed and replaced with Neurobasal Media (Gibco, cat #21103049) containing B27 supplement (Gibco, cat #17504044). Again, cells were allowed to rest overnight at 37° C., 5% CO2. […] Cells were then stimulated with 100 ng/mL recombinant human CSF1 for 24 hours. After stimulation, the culture supernatant was removed from each well and aliquoted into two different 96-well plates for subsequent ELISA assays.
Cell viability was determined using the CellTiter Glo 2.0 Luminescent Cell Viability Assay (Promega, cat #G9242). […] 100 μL was transferred from each well to a white plate and luminescence was read immediately on the FlexStation3 Multi-Mode Microplate Reader (Molecular Devices, cat #Flex3) with SoftMax Pro Software.
(§2) iCell microglia (human iPSC derived microglia) were plated at 50,000 cells per well and rested overnight. […] Cell viability was assessed utilizing Promega's Cell Titer Glo Assay Kit. […]

[2] = test system: MCP-1 production in primary murine microglial cells; assay: MCP-1 ELISA, primary mouse microglia after CSF-1 stimulation; conditions: Mus musculus, Microglia, 24 h, read-out: IC50, MCP-1 production
Description: (§3) Primary mouse microglia were suspended at a concentration of 5×10^5 cells/mL and 100 μL of this cell suspension was added to the inner 60 wells of three 96-well plates. Microglia cells were allowed to rest overnight at 37° C., 5% CO2. […] Cells were then stimulated with 100 ng/mL recombinant mouse CSF-1 for 24 hours. After stimulation, the culture supernatant was removed from each well and aliquoted into two different 96-well plates for subsequent ELISA assays. Plates were fixed with 4% PFA for future immunocytochemistry analysis.

[3] = test system: primary mouse microglia (wild type, SOD1); assay: CellTiter Glo 2.0 viability assay, wild-type and SOD1 primary microglia; conditions: wild type and SOD1 cells
Description: (§4) The impact of a deuterated CSF-1R inhibitor of this disclosure on cytokine/chemokine production following CSF-1 or LPS stimulation in wild-type versus SOD1 mutant primary microglial cells was examined in the following experiments.
(§5) Methods Treatment and Stimulation of Primary Microglial Cells
as §3, with “each well” for “the inner 60 wells”, “a” for “three”, “plate.” for “plates.”, “M-CSF for 30 minutes or 10 ng/mL lipopolysaccharide” for “CSF-1”, “assays.” for “assays. Plates were fixed with 4% PFA for future immunocytochemistry analysis.”
Cell viability was determined using Promega's Cell Titer Glo Luminescent Cell Viability Assay. […] 100 μL was transferred from each well to a white plate and luminescence was read immediately on the FlexStation3 plate reader.
Primary murine microglia were plated at 50,000 cells per well and rested overnight. […] Cell viability was assessed after 24 hours utilizing Promega's Cell Titer Glo Assay Kit. Both CSF-1 and LPS stimulation induced a slight increase in the cell viability readout versus unstimulated cells (FIGS. 8A-8B and FIGS. 9A-9B).

[4] = test system: IL-12p40 production in primary mouse microglia (wild type, SOD1); assay: IL-12p40 ELISA, wild-type and SOD1 primary microglia, LPS stimulation; conditions: LPS stimulation, 50, 100, 200 nM, wild type and SOD1 cells
Description: as §4, §5
as §3, with “each well” for “the inner 60 wells”, “a” for “three”, “plate.” for “plates.”, “M-CSF for 30 minutes or 10 ng/mL lipopolysaccharide” for “CSF-1”, “assays.” for “assays. Plates were fixed with 4% PFA for future immunocytochemistry analysis.”
Cell culture supernatants were assayed with the Quantikine Mouse IL-12p40 ELISA kit from R&D Systems (cat #MP400). Samples were diluted 1:10 with Calibrator Diluent. Fifty microliters of Assay Diluent were first added to each well. Fifty microliters of Standards, Assay Control and diluted Sample were then added in singlicate to the wells. The plate was mixed by gently tapping the frame, then sealed with an adhesive strip. The plate incubated for 2 hours at room temperature. […] After incubation, the acid stop solution was added to each well, and the plate was read on the ELISA plate reader at 450 nm.

[5] = test system: MCP-1 production in iCell microglia (human iPSC derived microglia); assay: MCP-1 ELISA, iCell human microglia, CSF1 stimulation; conditions: 1.5625-200 nM, CSF1 100 ng/mL 24 hours
Description: as §1
Culture supernatants were assayed with the Quantikine Human MCP-1 ELISA kit (R&D Systems, cat #SCP00). […] After incubation, fifty microliters of the acid stop solution was added to each well, and the plate was read on the FlexStation3 Multi-Mode Microplate Reader (Molecular Devices, cat #Flex3) with SoftMax Pro Software at 450 nm.
as §2

Compound: [2H]c1nc2cccnc2n1Cc1cc(OC)c2c(c1)O[C@@H](C)[C@H](c1ccc(OC)nc1)O2 [Compound 6, 3-(((2S,3S)-8-methoxy-2-(6-methoxypyridin-3-yl)-3-methyl-2,3-dihydrobenzo[b][1,4]dioxin-6-yl)methyl)-3H-imidazo[4,5-b]pyridine-2-d]
- human microglia viability [1]: did not impact human microglia viability at the concentrations assessed
- IC50 [2]: 23.2 nM
- cell viability ([3]; CSF-1 stimulation, 50, 100, 200 nM): no toxic effect on microglia at the concentrations assessed; also recorded: slightly reduced the CSF-1-induced increase in cell viability
- cell viability ([3]; LPS stimulation, 50, 100, 200 nM): no deleterious effect on cell viability
- IL12-p40 production [4]: significantly reduced IL12-p40 production in a concentration dependent manner
- MCP1 production [5]: significantly reduced MCP1 production in a concentration dependent manner
